Values after ≈ are worked out from the molar mass of the structure shown. Where two headings read alike, the source gives them in different places.
Columns and labels:
Format in all cases: cell-based
[1] = system: Staphylococcus pseudointermedius (JCM 17571); assay: Antimicrobial activity test, minimum bactericidal concentration after 1 minute contact (Test Example 6); settings: JCM17571, S. pseudintermedius JCM 17571, then LB medium 30° C. for 72 hours, read-out: Minimum bactericidal concentration (MBC100)
Description: Test Example 6: Antimicrobial Activity test Test Compound: Compound No. 6 Test Microbial Strain: Staphylococcus Pseudointermedius (JCM 17571) The staphylococcus (Staphylococcus pseudointermedius) cultured for 24 hours on a Luria Broth (LB) agar medium plate (peptone, yeast extract, sodium chloride, agar, Invitrogen) was suspended in physiological saline, and a suspension thereof was prepared in such a way as to have an absorbance of 0.025 at 600 nm. Thereto, the test compound dissolved in DMSO was added in such a way as to provide a final concentration of 200, 100, 50, or 25 ppm, and after 1 minute, 10 µL of the suspension and 10 mL of physiological saline were placed in a syringe and stirred, and the syringe was connected to a 37 mm Quality Monitor (manufactured by Pall Corporation) followed by filtration and washing twice with 10 mL of physiological saline. The membrane filter was impregnated as it was with an LB medium and subjected to culturing at 30° C. for 72 hours, the presence or absence of colony growth was investigated, and the minimum bactericidal concentration (MBC100) was determined.

[2] = system: Microsporum canis (IFM63627); assay: Antifungal activity test, minimum inhibitory concentration (Test Example 7); settings: Sabouraud medium, 32° C. for 72 hours, read-out: Minimum inhibitory concentration (MIC100)
Description: Test Example 7: Antifungal Activity Test
(§1) Test Compound: Compound No. 6
(§2) Test Microbial Strain: Microsporum Canis (IFM63627)
The antifungal activity was studied by partially modifying the method of Test Example 5. Microsporum canis was cultured at 32° C. for 168 hours in a ⅒ Sabouraud medium to form spores, then 10 mL of physiological saline (Otsuka Normal Saline; containing 9 g of sodium chloride in 1000 mL) was added directly onto the medium, and the surface was rubbed using a disposable loop (type 1 (1 µL)) to recover a spore suspension containing hyphae. The spore suspension containing hyphae was filtered through a cell strainer (φ40 µm). The spores were recovered from the filtrate by centrifugation (3500 rpm, 5 minutes) and washed twice with physiological saline, and then a spore suspension was prepared (1 × 10^7 spores/mL). 10 µL of the spore suspension was inoculated into a Sabouraud medium to which the test compound dissolved in DMSO was added to have a predetermined concentration. Microsporum canis was cultured at 32° C. for 72 hours, then the presence or absence of colony growth was investigated, and the minimum inhibitory concentration (MIC100) was determined.

[3] = system: Microsporum canis (IFM63627); assay: Antifungal activity test, minimum fungicidal concentration on spores (Test Example 8); settings: read-out: Minimum fungicidal concentration (MFC100)
Description: Test Example 8: Antifungal Activity Test
as §1, §2
Microsporum canis was cultured at 32° C. for 168 hours in a ⅒ Sabouraud medium to form spores, then 10 mL of physiological saline (Otsuka Normal Saline; containing 9 g of sodium chloride in 1000 mL) was added directly onto the medium, and the surface was rubbed using a disposable loop (type 1 (1 µL)) to recover a spore suspension containing hyphae. The spore suspension containing hyphae was filtered through a cell strainer (φ40 µm). The spores were recovered from the filtrate by centrifugation (3500 rpm, 5 minutes) and washed twice with physiological saline, and then a spore suspension was prepared (1 × 10^7 spores/mL). 10 µL of the spore suspension was inoculated into 90 µL of physiological saline to which compound No. 6 dissolved in DMSO was added to have a predetermined concentration. […] The 10-µL spore suspension was spotted onto a Sabouraud medium and subjected to culturing at 32° C. for 72 hours, the presence or absence of colony growth was investigated, and the minimum fungicidal concentration (MFC100) was determined.

[4] = system: M. furfur (IMF55951 strain); assay: Antimicrobial activity against microbes of genus Malassezia: colony formation inhibition (Test Example 2); settings: 1 min, final concentration 500 ppm, 1 minute contact, read-out: Colony formation inhibition rate (%)
Description: (§3) The Malassezia microbe (Malassezia pachydermatis) cultured for 5 to 7 days in a Sabouraud medium (1% peptone, 4% dextrin, 1.5% agar) supplemented with 0.5% of Tween 40 (polyoxyethylene sorbitan monopalmitate: manufactured by Kanto Chemical Co., Inc.) was suspended in physiological saline and a suspension thereof was prepared in such a way as to have an absorbance of 0.25 at 550 nm. Thereto, the test compound dissolved in DMSO was added in such a way as to provide a final concentration of 500 ppm, and after 1 minute, 10 µL of the suspension and 10 mL of physiological saline were placed in a syringe and stirred, and the syringe was connected to a 37 mm Quality Monitor (manufactured by Pall Corporation) followed by filtration and washing. The membrane filter was impregnated as it was with a Sabouraud medium supplemented with 1% of Tween80 (polyoxyethylene sorbitan monooleate: manufactured by Kanto Chemical Co., Ltd.) and subjected to culturing at 32° C. for 72 hours, the number of colonies formed there (number of colonies in the inventive plot) and the number of colonies in a solvent to which the test compound was not added (the number of colonies in the non-agent treated plot) were measured, and the colony formation inhibition rate (%) was determined according to the following expression. Colony formation inhibition rate (%) = [(number of colonies in non-agent treated plot - number of colonies in inventive plot)/number of colonies in non-agent treated plot] × 100 Test compound: Compound No. 1 (final concentration of 500 ppm) Test microbial strains: Malassezia pachydermatis (IFM56528 strain), M. furfur (IMF55951 strain), M. sympodialis (IMF48588 strain), M. globosa (IMF51946 strain), and M. restricta (IMF55992 strain) The colony formation inhibition rate for each of the test strains was determined by the same method as in Test Example 1.

[5] = system: M. globosa (IMF51946 strain); assay: as above; settings: 1 min, final concentration 500 ppm, 1 minute contact, read-out: Colony formation inhibition rate (%)
Description: as §3

[6] = system: M. restricta (IMF55992 strain); assay: as above; settings: 1 min, final concentration 500 ppm, 1 minute contact, read-out: Colony formation inhibition rate (%)
Description: as §3

[7] = system: M. sympodialis (IMF48588 strain); assay: as above; settings: 1 min, final concentration 500 ppm, 1 minute contact, read-out: Colony formation inhibition rate (%)
Description: as §3

MIC [2] [µg/mL] | SMILES | MBC [1] [µg/mL] | MFC ([3]; treatment time 24 Hours) [µg/mL] | MFC ([3]; treatment time 96 Hours) [µg/mL] | inhibition at 500 ppm [4] [%] | inhibition at 500 ppm [5] [%] | inhibition at 500 ppm [6] [%] | inhibition at 500 ppm [7] [%]
5 (≈ 19.8 µM) | Cc1ccc(-c2nc(C#N)[nH]c2Cl)cc1Cl [Compound No. 6, 5-chloro-4-(3-chloro-4-methylphenyl)-1H-imidazole-2-carbonitrile] | 50 (≈ 198 µM) | 50 (≈ 198 µM) | 10 (≈ 39.7 µM) | – | – | – | –
– | Cc1ccc(-c2nc(C#N)[nH]c2Cl)cc1 [Compound No. 1, 5-Chloro-4-(4-methylphenyl)-1H-imidazole-2-carbonitrile] | – | – | – | 100 | 97 | 100 | 100
